Data set [1] in a line: Three-day MTT cell growth inhibition assay, 1542NPTX. It is filed as cell-based, human. The note with it: human, 1542NPTX cells.
Another data set has as its system 1542NPTX. The data set is described as above. It is filed as cell-based, human. The settings on record: Homo sapiens, 72 h, 3 days.
The test system of the next data set is CK2. Nature of the data set: CK2 in vitro kinase assay. It is filed as biochemical. The settings on record: in the presence of CDC37. From the text: CK2 activity. […] If they haven’t, I […]
affected by KBU2046. Specifically, because of CK2’s known link to S226 we likewise suspected that it could be involved in the mechanism of action. CK2 was indeed included in the LUMIER assay (see
Fig. 6 and Supplementary Fig. 19). We used the LUMIER assay to evaluate whether KBU2046 was altering the binding of client protein kinases to HSP90β/CDC37 heterocomplexes in intact cells, and thereby evaluated hundreds of client protein kinases. In this manner, we observed that KBU2046 did […]
known mechanistic link, we also utilized our in vitro system to interrogate purified CK2 and specifically […]
below, and if requested, we are happy to insert these otherwise negative findings into supplementary […]
CK2 in vitro kinase assay. As described in Figs 6f and g, the ability of recombinant CK2 to phosphorylate serine 226 on HSP90β, in the presence of CDC37, was evaluated +/- KBU2046 (46). Reaction time in minutes
(Mins) is denoted. KBU2046 had no effect upon serine 226 phosphorylation.
12. On top of the 8th page of the Results (where the authors discuss data in Fig. 5b-d and in […]
hydrogen bond formation with Glu33 of Hsp90beta to create formation of a new pocket into which the drug binds. […]
Additional comment 1. Figure 4c: if the data are expressed as %VC, should not the VC bar be set at […]

The test system of a further data set is PC3-M cells. Description: Cell invasion of PC3-M cells with altered HSP90β. It is filed as cell-based, human. The protocol:
Fig. 4 KBU2046 decreases phosphorylation of HSP90β. a Probing for KBU2046-induced changes in protein phosphorylation. PC3-M or PC3 cells were pre-treated with 10 µM KBU2046 for 3 days, then with ±TGFβ and the resultant cell lysate probed for changes in protein phosphorylation with the KinomeView® assay. The depicted western blot utilizes KinomeView® phospho-motif antibody, BL4176; the blue arrow denotes an 83 kDa band whose phosphorylation is inhibited by KBU2046 (see Supplementary Fig. 10 for complete KinomeView® assay screening data). b Proteomic analysis. PC3 cells were pre-treated with KBU2046 or vehicle, then with TGFβ, proteins from the resultant cell lysate were immunoprecipitated with BL4176, and HSP90β was identified by LC-MS/MS analysis (see Supplementary Fig. 12 for expanded proteomic assay data). The phospho-motif recognized by the antibody is underlined; S*—denotes Ser226, whose phosphorylation is decreased by KBU2046. c, d The phospho-mimetic changes in HSP90β Ser^226 structure regulate human PCa cell invasion and KBU2046 efficacy. PC3-M cells were transfected with S226A-, S226D-, or WT-HSP90β, or empty vector (VC), treated with KBU2046 or vehicle, and cell invasion measured. Values are the mean ± SEM of a representative experiment of multiple experiments (all in replicates of N = 3); *denotes t-test P value <0.05 between bracketed conditions, or compared to VC […]
Boyden chamber cell invasion assays were performed as previously described by us[30], using either denatured collagen (BD Biosciences) or type IV human collagen (BD Biosciences), with all experiments repeated, each in N = 4 replicates. In some experiments, as indicated, cells were transfected with an expression plasmid, using Lipofectamine 2000™ (Invitrogen), or with siRNA, using DharmaFect Duo (Thermo Scientific) and co-transfected with β-Galactosidase (Plasmid pCMV•SPORT-βgal; Life Technology).
Supplementary Figure 13. Changes in HSP90β Ser226 structure as well as HSP90β expression regulate PCa cell invasion and KBU2046 efficacy. (a) Levels of HSP90β expression after transfection of cells. In manuscript Figs 4c and d, PC3-M cells were transfected with S226A-, S226D-, or WT-HSP90β, or empty vector (VC) and resultant effects upon cell invasion and KBU2046 efficacy measured. Depicted above are associated Western blots probing for HSP90β, FLAG (transfected HSP90β was FLAG-tagged) and GAPDH. (b-d) Knockdown of HSP90β decreases cell invasion and abrogates KBU2046 efficacy. PC3-M cells were transfected with siRNA to HSP90β (siHSP90b) or non-targeting siRNA (siCO). (b) The level of HSP90β (HSP90b) and HSP90α (HSP90a) transcript levels were measured by qRT/PCR, and expressed relative to that of GAPDH. (c) The level of HSP90β protein expression was measured by Western blot. (d) Cells were treated with KBU2046 (46) or vehicle control, and cell invasion measured. Values are the mean±SEM of a representative experiment of multiple experiments (all in replicates of N=3). *denotes t-test P value </= 0.05 compared to siCO.

The record followed here is publication PMC6014988, “Precision therapeutic targeting of human cancer cell motility” (Nature Communications, 2018).

Some results are limits rather than exact numbers.

As a reminder, the viability is a read-out of living cells in per cent, often relative to untreated cells. A word on the IC20: it is the concentration needed for an effect of 20%. Higher therefore signals a need for much substance. Usually IC50 stands for the concentration that inhibits the measured activity by half.

In the case of `O=C1c2ccccc2OCC1c1ccc(F)cc1` (racemic) [KBU2046, (±)-3(4-fluorophenyl)chroman-4-one], the viability at 3 days, 50 µM in data set [1] is 107%. The IC20 in the data set on 1542NPTX was more than 50 µM. The molecule also registered an IC50 in the data set on 1542NPTX of more than 50 µM. Moreover, the “CK2 phosphorylation of S226 on HSP90β” value in the data set with CK2 is given as “does not inhibit”. Also, the cell invasion entry in the data set with PC3-M cells ((S226A)-HSP90β transfected cells) is “does not further inhibit cell invasion”; with PC3-M cells ((S226D)-HSP90β transfected cells), “did not significantly inhibit cell invasion”; in the data set with PC3-M cells (VC and WT-HSP90β cells), “significantly inhibited invasion”; with PC3-M cells (VC cells), “significantly inhibits invasion”. The anti-invasion efficacy result with PC3-M cells (siRNA-mediated HSP90β knockdown) is listed as “abrogated KBU2046 efficacy”.
